Literature values as cited in patent publication EP0884997B1, “COMPOSITIONS CONTAINING AN ANTIFUNGAL AND A SULFUR COMPOUND” (JANSSEN PHARMACEUTICA N.V., priority 1996, dated 1997).

Conditions: prior art medicated shampoos, dandruff patients

CC(=O)N1CCN(c2ccc(OCC3COC(Cn4ccnc4)(c4ccc(Cl)cc4Cl)O3)cc2)CC1 (centres unmarked) [ketoconazole]
number of patients not responding to particular medicated shampoo: up to 30%

S=[Se]=S [selenium sulfide]
number of patients not responding to particular medicated shampoo: up to 40%
